Experimental data reported in patent US20090215640A1, “METHODS FOR IDENTIFYING LIGANDS FOR STEM CELLS AND CELLS DERIVED THEREFROM” (priority 2005, published 2009).

What was measured:
[1] = tested on: adult heart capillaries and endocardium; settings: Zhang et al., Circulation 2005; cited from earlier work
hESCs = assay: Binding and internalization of mouse selected peptide phage into hESCs; type: cell-based, human; settings: subpopulation of hESCs
[2] = target: T1, CRIP2 (also known as heart LIM protein (Hlp)) (Mus musculus, UniProt Q9DCT8); settings: Zhang et al., Circulation 2005; cited from earlier work
T1 sequence (Q9DCT8 1-208): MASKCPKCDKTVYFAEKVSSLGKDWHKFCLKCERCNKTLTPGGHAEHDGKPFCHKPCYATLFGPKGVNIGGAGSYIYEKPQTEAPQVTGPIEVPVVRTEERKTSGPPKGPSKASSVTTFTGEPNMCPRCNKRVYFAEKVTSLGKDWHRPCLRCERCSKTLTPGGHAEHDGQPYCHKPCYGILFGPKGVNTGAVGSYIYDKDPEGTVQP

**Q.** Which results are given for CRPPR*?
**A.** Binding to adult heart capillaries and endocardium [1]: known to bind to adult heart capillaries and endocardium; Binding and internalization into hESCs (hESCs): binds and internalizes into a subpopulation of hESCs; Binding to CRIP2 [2]: binds to CRIP2
